Measured values reported in BindingDB's records for doi:10.1021/jm00033a017 (Dupont Pharmaceuticals, 1994).

Target: Prostaglandin G/H synthase 1 (Bos taurus) (UniProt O62664)
Test: Inhibitory activity against bovine seminal vesicle prostaglandin synthetase

Chain of Prostaglandin G/H synthase 1 (Bos taurus) (O62664 whole entry, looked up): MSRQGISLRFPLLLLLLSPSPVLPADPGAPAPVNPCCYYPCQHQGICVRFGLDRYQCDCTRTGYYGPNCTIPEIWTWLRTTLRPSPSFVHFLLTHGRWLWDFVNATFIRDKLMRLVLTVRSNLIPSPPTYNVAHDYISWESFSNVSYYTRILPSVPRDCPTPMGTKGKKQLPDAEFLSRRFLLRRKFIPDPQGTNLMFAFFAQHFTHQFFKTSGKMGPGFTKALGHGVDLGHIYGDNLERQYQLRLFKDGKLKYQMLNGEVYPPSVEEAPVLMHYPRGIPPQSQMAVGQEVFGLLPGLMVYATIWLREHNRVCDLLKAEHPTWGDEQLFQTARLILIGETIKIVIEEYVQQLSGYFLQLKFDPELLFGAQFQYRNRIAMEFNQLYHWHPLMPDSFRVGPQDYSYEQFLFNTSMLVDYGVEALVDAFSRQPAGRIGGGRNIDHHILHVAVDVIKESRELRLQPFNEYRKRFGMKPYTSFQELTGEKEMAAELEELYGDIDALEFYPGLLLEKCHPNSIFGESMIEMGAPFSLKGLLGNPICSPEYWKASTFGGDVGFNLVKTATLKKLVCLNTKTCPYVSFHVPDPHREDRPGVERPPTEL

## CS(=O)(=O)c1ccc(-c2[nH]c(SC#N)cc2-c2ccc(F)cc2)cc1 [3-(4-Fluoro-phenyl)-2-(4-methanesulfonyl-phenyl)-5-thiocyanato-1H-pyrrole]
  IC50: 6.2 µM
